Laboratory results from patent US11230688B2, “In vitro gastrointestinal model comprising lamina propria-derived cells” (EMULATE, Inc., priority 2016, dated 2022).
Where two headings read alike, the source gives them in different places.

What was measured:
[1] = test system: Caco-2 epithelial cell layer
Text: (§1) This permeability assay method for adsorption across a gut wall, i.e. caco-2 cells in a gut-on-chip, measures the rate of transport of a test compound added to the basal side of the membrane, for example, inulin-FITC, across to the apical side. […] Conversely, adding a test compound to the apical side may also be used to measure transport to the basal side.
(§2) The Gut-On-Chip modeling of inflammation was used for testing bacterial antigen effects on barrier function and cytokine production. An exemplary bacteria antigen used was PAM2CSK4. […] PAM2CSK4 refers to a synthetic diacylated lipopeptide.
(§3) A co-culture configured as described herein was incubated in a device of the present inventions as described in FIG. 7.
(§4) Cultivation of Caco-2 cells in microfluidic device: Caco-2 cell monolayers were seeded as described herein. Basal regions of cells were exposed to medium under flow. […] Experimental procedure: Cells were used for this experiment between days 7 and 9 post seeding. Donor solutions (including a 100 μg/ml Inulin-FITC) were prepared, and solutions used in this experiment were prewarmed to 37° C. Inulin-FITC was used as an indicator for the determination of the monolayer integrity. […] Inulin-FITC method: 6 mM Inulin-FITC may be added into an apical region of a monolayer; and incubated for 1 hr. A standard curve may be prepared in a separate container, e.g. a 0.5 to 50 μM; HBSS blank containing 1 to 0.5% DMS0 is placed in wells; Aliquots of 200 μl are transferred from the separate container to a solid black plate; Aliquots of 50 μl are transferred from the device to a solid black plate containing 50 μl HBSS with 1-0.5% DMSO; Plates may be read in a fluorescent reader (Excitation/Emission wavelength 480/530 nm); LY rejection (Pc) values are calculated. V. Molecule transport assay: Transport of a molecule across the monolayer may also be determined; a test compound may be added at the apical region of the monolayer then removed from the apical and/or basal media then analyzed using LC-MS method for loss (e.g. apical region) or gain (e.g. basal region).
(§5) Microfluidic co-cultures with HUVEC cells in the bottom chamber, LPDCs from human non-inflamed regions of UC tissue biopsies, LPDCs from UC inflamed tissue biopsies, and samples with no LPDCs, were overlaid with Caco-2 epithelial cell layers.

[2] = test system: Intestine On-Chip with TH1 or TH9 populations; test: Intestine On-Chip seeded with plate-differentiated TH1 or TH9 cells, soluble reagents: cytokine production and gene expression; assay type: cell-based, human; conditions: for IL-10 secretion: TH9 populations
Text: Experiments were designed to evaluate whether anti-CD3 and anti-CD28 co-stimulatory activation (soluble reagents) on chip would stimulate on chip T cells (previously activated and differentiated on plates) to continue functioning as activated effector cells within the chip tissue microenvironment. Further, TH1 and TH9 T cell populations underwent testing for an exacerbated response (either tissue alterations or changes in the characteristics of the T cell population) to a specific antigen stimulation, e.g. PAM2CSK4 (TLR2) bacterial agonist, with or without additional co-stimulation (i.e. using soluble reagents). Stimulation on-chip was done as a treatment on Day 7 of culture.
In this example, a TH1 cell population was produced from a population of mature/naive CD4+ T cells, as described in Example 7. This population of CD4+ T cells were co-stimulated with adhered CD3 and soluble CD28 antibodies, without added cytokines, for inducing differentiation of TH1 cells on plates. Unlike co-stimulation with adhered CD3 and soluble CD28 antibodies in the presence of TGFB IL-4, and IFNg cytokines which induced differentiation of TH9 cells, as described herein. Thus, in this example, purified CD4+ T cell populations were plated into tissue culture plates for activation and differentiation into one selected T cell subtype, e.g. TH1 in one plate, and TH9 in another plate.
In order to further test whether PBMCs activated and differentiated with soluble factors were capable of inducing inflammation on chips, pro-inflammatory cytokine production was compared between untreated, PAM2CSK4 treated with and without Tofacitinib. […]
Evaluation of the effects of T-cell activation on the Intestine On-Chip by perfusion of soluble immune activating factors (anti-CD3 and anti-CD2) to the media is shown in FIGS. 36A-B-39A-C. In particular, activated T-cell subsets were evaluated for disease-specific cytokine production.

[3] = test system: microfluidic co-cultures of Caco-2 epithelial cells, HUVECs and LPDCs; test: Gut-On-Chip cytokine and chemokine production in co-cultures with lamina propria-derived cells; assay type: cell-based, human
Experimental: An exemplary bacteria antigen used was PAM2CSK4. […] PAM2CSK4 refers to a synthetic diacylated lipopeptide.
In order to determine contributory factors to the trends in permeability changes observed by combinations of prednisone treatments as in Example 5, cytokine and chemokine production were measured from media samples obtained from the microfluidic cultures as described in EXAMPLE 5. After an incubation time, media samples were extracted from the microfluidic device then used for determining amounts cytokine and chemokine produced, such as IL-6 and IL-9 in FIG. 18A-B; IL-8 and G-CSF in FIG. 19A-B; GM-CSF and MCP-1 in FIG. 20A-B; MIP1b and PDGF-AB/BB in FIG. 21A-B; and RANTES in FIG. 22. Amounts of cytokine and chemokine protein are measure in pg/ml (picogram per milliliter).

[4] = test system: resident immune cells from healthy and UC patient LP tissue; test: Secreted cytokine production of resident immune cells cultured on plates, 24 hour bacterial challenge; assay type: cell-based, human; conditions: immune cells from inflamed UC tissue
[5] = test system: Caco-2 epithelial cell layer; test: Gut-On-Chip barrier function (apparent permeability, Papp) with lamina propria-derived cells; conditions: for Loss of barrier function: PAM2CSK4, overnight incubation
Text: as §1, §2, §3, §4, §5

[6] = test system: microfluidic co-cultures of Caco-2 epithelial cells, HUVECs and LPDCs; test: Gut-On-Chip cytokine and chemokine production in co-cultures with lamina propria-derived cells; assay type: cell-based, human; remark: listed apart in the source
[7] = test system: Caco-2 epithelial layer
Text: The chips treated with PAM2CSK4 as a model bacterial antigen are considered infected chips.

[8] = test system: TH1 and TH9 CD4+ T cell populations; test: On-plate bacterial antigen stimulation of differentiated CD4+ T cell subsets (cytokines, IL-9 activation factors); assay type: cell-based, human
Text: In this example, a TH1 cell population was produced from a population of CD4+ T cells obtained from a sample of PBMCs. This population of CD4+ T cells were co-stimulated with soluble CD3 and CD28 antibodies without added cytokine stimulation for inducing differentiation of TH1 cells. Unlike the co-stimulation with soluble CD3 and CD28 antibodies in the presence of TGFB, IL-4, and IFNg cytokines for inducing differentiation of TH9 cells as described herein.
Thus, in this example, purified CD4+ T cell populations were plated into tissue culture plates for activation and differentiation into one selected T cell subtype, e.g. Th1 in one plate, and Th2 in another plate.
A sample of each TH cell type was exposed to PAM2CSK4, then log 2 fold changes in protein expression of either pathway molecules or IL-9 were measured and compared to duplicate samples not treated with PAM2CSK4.

[9] = test system: Ulcerative Colitis; conditions: cited from earlier work
[10] = Prednisone alone, non-inflamed LPDC cultures
[11] = prednisone, inflamed LPDCs, with and without PAM2CSK4
[12] = prednisone, non-inflamed and inflamed LPDCs treated with PAM2CSK4

PAM2CSK4
Permeability (Papp) [1]: show an increase in permeability | IL-10 secretion ([2]; Pam stimulated vs unstimulated): no insignificant differences | IL-8 ([2]; antigen specific stimulation (TLR2 agonist) on activated TH1 and TH9 chips): increased | IL-6 production ([3]; 1, 2 and 4 LP mil/ml, versus co-cultures with no PAM2CSK4): induced a higher level of IL-6 production | IL-9 production ([3]; LP leukocyte co-cultures for each source (healthy, UC non-inflamed, UC inflamed)): induce IL-9 | IL-6 production ([3]; PAM2CSK4, inflamed LPDC samples): increased IL-6 production | IL-6 production ([3]; PAM2CSK4, non-inflamed LPDC samples): not with the non-inflamed LPDC samples | IL-9 production ([3]; PAM2CSK4, non-inflamed and inflamed LPDC co-cultures, over endogenous levels): significantly induced IL-9 production | Apical IL-9 cytokine secretion ([3]; apical regions, 4 LP mil/ml): not at 4 LP mil/ml | IL-9 production ([3]; epithelial cells without LP cells): not in epithelial cells without LP cells | IL-6 production ([3]; healthy LP leukocyte co-cultures and epithelial cells without LP): induce an IL6 response | Response to TLR2 activation (secreted TNF alpha, IL-6, IL-8) [4]: stronger response | Loss of barrier function ([5]; 4 LP mil/ml): Loss of barrier function is shown | Loss of barrier function ([5]; LP 1 mil/ml or LP 2 mil/ml): not at LP 1 mil/ml or LP 2 mil/ml | Basal IL-9 cytokine secretion ([6]; 4 LP mil/ml, basal areas): induced a higher level of IL-9 production | Apical IL-9 cytokine secretion ([6]; apical regions, 1 and 2 LP mil/ml): increased with PAM2CSK4 treatment | Avg. Z Height of Caco-2 epithelial layer [7]: 84 um+/−11 | GATA3 and SPI1 (log 2 fold change) ([8]; PAM2CSK4, TH1 populations): not GATA3 car SPI11 | IL-9 mRNA concentrations ([8]; PAM2CSK4, TH1 populations): did significantly increase | IRF4 and IL-9 (log 2 fold change) ([8]; PAM2CSK4, TH1 populations): produce measurable IRF4 and IL-9 | IL-9 and IL-9 activation factors (log 2 fold changes) ([8]; PAM2CSK4, TH9 populations in tissue culture plate): did not significantly increase IL-9 | Cytokine protein expression post differentiation ([8]; soluble PAM2CSK4, TH1 (CD) and TH9 (UC) cells on-plates): increases in the concentration of protein signaling

C[C@]12C=CC(=O)C=C1CC[C@@H]1[C@@H]2C(=O)C[C@@]2(C)[C@H]1CC[C@]2(O)C(=O)CO [prednisone]
PDGF-AA/BB production ([3]; Prednisone alone): did not appear to be a reduction in PDGF-AA/BB | GM-CSF production [3, 10]: did not appear to be a reduction in GM-CSF | MCP-1 production [3, 10]: did not appear to be a reduction in MCP-1 | IL-8 production ([3]; non-inflamed LPDC cultures, Prednisone alone or PAM2CSK4): did not appear to be a reduction in IL-8 | IL-9 production ([3]; prednisone on PAM2CSK4-increased IL-9): significantly reduced | IL-6 production ([3]; prednisone, inflamed LPDCs, endogenous or induced by PAM2CSK4): reduce IL-6 production | GM-CSF production [3, 11]: reduced GM-CSF production | IL-8 production [3, 11]: trend for reducing IL-8 production | MCP-1 production [3, 11]: reduced MCP-1 production | IL-6 production ([3]; prednisone, non-inflamed LPDCs): does not appear to have an effect | PDGF-AA/BB production ([3]; prednisone, non-inflamed LPDCs): trend for reducing PDGF-AA/BB production | PDGF-AA/BB production [3, 12]: trend for reducing PDGF-AA/BB production | RANTES production [3, 12]: trend for reducing RANTES production | IL-9 production ([3]; prednisone, non-inflamed and inflamed UC LPDC, regardless of PAM2CSK4): reduced | G-CSF production ([3]; prednisone, non-inflamed or inflamed LPDCs, with and without PAM2CSK4): trend for reducing G-CSF production | Inflammatory responses (secreted cytokine production) to PAM2CSK4 treatment ([3]; prophylactic prednisone, UC patient's resident immune cells, noninflamed and inflamed tissues): suppresses the inflammatory responses | treated patients non-responsive [9]: around 16% | treated patients with full remission [9]: ~54% | treated patients with partial remission [9]: ~30% | Permeability (Papp) ([5]; FIG. 17A, prednisone, at least one patient sample of non-inflamed LPDCs): some benefit in reducing permeability | Permeability (Papp) ([5]; FIG. 17A, prednisone, at least one patient sample with inflamed UC LPDC): undesirable increase | Permeability (Papp) ([5]; FIG. 17B, overnight, prednisone, inflamed UC LPDCs): did not induce an increase in permeability | Permeability (Papp) ([5]; FIG. 17B, overnight, prednisone, non-inflamed UC LPDC): undesirable increase in permeability | Permeability (Papp) ([5]; overnight, prednisone, inflamed UC LPDC samples): both an increase and a decrease in permeability | Permeability (Papp) ([5]; prednisone and PAM2CSK4, inflamed UC LPDC): little benefit | Permeability (Papp) ([5]; prednisone and PAM2CSK4, non-inflamed UC LPDC): range of responses | Permeability (Papp), trend ([5]; prednisone and bacterial antigen): trend for decreasing permeability | Permeability (Papp), trend ([5]; prednisone, inflamed UC LPDC): little difference from the non-inflamed LPDC sample | Permeability (Papp), trend ([5]; prednisone, non-inflamed UC LPDC): increased permeability | Permeability (Papp), effect on average ([5]; prednisone, non-inflamed or inflamed UC LPDC): no significant effect

Tofacitinib (citrate)
IL-10 secretion ([2]; mixture of PAM2CSK4 and Tofacitinib vs unstimulated): induced significant amounts
